Patent US7652047B2, “Phenylamino isothiazole carboxamidines as MEK inhibitors” (Ardea Biosciences, Inc., priority 2005, dated 2010)
Read-outs that look alike come from different tables or passages of the source.

Tests used:
[1] = tested on: phosphorylated ERK in MDA-MB-231 breast cancer cells; assay: Western blotting for phosphorylated ERK in EGF-stimulated MDA-MB-231 cells; type: cell-based; conditions: Homo sapiens, Table 4, compound 30 min, 100 ng/ml EGF 5 min
Description: Effects of compounds in the cell were determined by Western blotting for phosphorylated ERK. MDA-MB-231 breast cancer cells were plated in a 48 well plate at 20,000 cells per well and grown in a 37° humidified CO2 incubator. The following day, the growth media (DMEM+10% fetal bovine serum) was removed and replaced with starve media (DMEM+0.1% fetal bovine serum). Cells were incubated in the starve media for sixteen hours and then treated with a range of compound concentrations for thirty minutes. After incubation with compound, cells were stimulated with 100 ng/ml EGF for five minutes. The cells were then lysed and analyzed by Western blot using a monoclonal antibody raised to phosphorylated ERK. The signal was amplified using a secondary antibody conjugated to a near-IR dye and detected on a Licor Odyssey scanner.

[2] = target: T1, MEK1^CA (human GST-MEK1, constitutively active, Ser218Asp and Ser222Asp) (Homo sapiens, UniProt Q02750, S218D/S222D); assay: MEK1 enzymatic activity assay (MEK1^CA / ERK2 / MBP, [γ-33P]ATP incorporation); type: biochemical
T1 construct: GST; made in house; host or cells: Escherichia coli
Method in brief: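 Cascade assay: 25 µl reactions with 0.002 nmol E. coli-expressed GST-MEK1 S218D/S222D, 0.02 nmol His-tagged mouse ERK2, 0.25 nmol MBP, 0.25 nmol unlabeled ATP and 0.1 µCi [γ-33P]ATP. Compound preincubated 30 min at ambient temperature with MEK1/ERK2; stopped with TCA, 33P-labelled protein filter-captured and scintillation-counted.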

[3] = Table 1, compounds of formula I, read-out: Avg IC50
[4] = Table 3, benzamides of formula X, read-out: IC 50
[5] = Table 2, Ar1-A contains an amido or indolo group, read-out: IC 50

T1 sequence (Q02750 whole entry S218D/S222D): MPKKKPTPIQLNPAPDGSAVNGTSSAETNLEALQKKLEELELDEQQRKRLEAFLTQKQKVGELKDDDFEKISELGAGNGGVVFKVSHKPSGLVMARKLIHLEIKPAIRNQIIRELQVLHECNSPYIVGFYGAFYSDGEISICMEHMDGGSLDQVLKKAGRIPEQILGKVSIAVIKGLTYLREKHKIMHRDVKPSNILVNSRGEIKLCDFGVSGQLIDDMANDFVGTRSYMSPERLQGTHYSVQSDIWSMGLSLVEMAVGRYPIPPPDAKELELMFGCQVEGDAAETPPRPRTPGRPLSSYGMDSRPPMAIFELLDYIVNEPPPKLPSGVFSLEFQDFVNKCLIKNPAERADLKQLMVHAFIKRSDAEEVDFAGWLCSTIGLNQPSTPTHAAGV

Structure (SMILES)	IC50 [2, 3] [nM]	other results
N=C(NCC1CCCO1)c1c(O)nsc1Nc1ccc(Oc2cc(Cl)ccc2Cl)cc1 (centres unmarked)		EC50 [1]: 1 to 100 nM
CN1CCN(CCNC(=N)c2c(O)nsc2Nc2ccc(Oc3cc(Cl)ccc3Cl)cc2)CC1		EC50 [1]: 100 to 500 nM
N=C(NC1CCC1)c1c(O)nsc1Nc1ccc(Oc2ccccc2)cc1 [Cpd 16]	1 to 100	
CCC[C@H]1CC[C@H](c2ccc(Nc3snc(O)c3C(=N)NC[C@@H](O)CO)cc2)CC1 [compound 193]	> 500	
Cc1cc(Nc2snc(O)c2C(=N)NCC2CCCCC2)c2ccccc2n1 [compound 107]	> 500	
N=C(NCC1CCCCC1)c1c(O)nsc1Nc1ccc(Oc2ccc(Cl)cc2)cc1 [compound 140]	1 to 100	
CC(C)NC(=N)c1c(O)nsc1Nc1ccc(Oc2cc(F)ccc2Cl)c(F)c1 [compound 319]	1 to 100	
N=C(NCCCCO)c1c(O)nsc1Nc1ccc(Oc2ccc(Cl)cc2)cc1 [compound 158]	100 to 500	
N=C(NCCO)c1c(O)nsc1Nc1ccc(Cc2ccccc2)cc1 [compound 146]	> 500	
COc1ccc(CNC(=N)c2c(O)nsc2NCc2ccc(OC)cc2)cc1 [compound 115]	> 500	
CC(C)(C)CCNC(=N)c1c(O)nsc1Nc1ccc(Oc2ccccc2)cc1 [compound 42]	1 to 100	
Cc1cc(Oc2cccc(F)c2F)ccc1Nc1snc(O)c1C(=N)N(O)C(C)C [compound 501]	100 to 500	
N=C(NCCc1cccc(F)c1)c1c(O)nsc1Nc1ccc(Oc2ccccc2)cc1 [Cpd 17]	100 to 500	
CC(C)NC(=N)c1c(O)nsc1Nc1ccc(C(=O)Nc2ccccc2)cc1 [drawing 810]		IC50 [2, 4]: 1 to 100 nM
CC(C)NC(=N)c1c(O)nsc1Nc1ccc(Oc2cccc(F)c2F)nc1 [compound 429]	100 to 500	
CC(C)NC(=N)c1c(O)nsc1Nc1ccc(C(=O)NC(C)C)cc1 [E-9]		IC50 [2, 5]: 200 to 1000 nM
CC(CO)NC(=N)c1c(O)nsc1Nc1ccc(Oc2cccc(F)c2)c(F)c1 (centres unmarked) [compound 362]	1 to 100	
CC(Nc1snc(O)c1C(=N)NCC1CCCCC1)c1ccccc1 (centres unmarked) [compound 118]	> 500	
Cc1cc(C)cc(Oc2ccc(Nc3snc(O)c3C(=N)NC(C)C)cc2)c1 [compound 267]	1 to 100	
N=C(NCCO)c1c(O)nsc1Nc1ccc(Oc2ccc(Cl)cc2Cl)cc1 [compound 221]	100 to 500	
CC(C)C(CO)NC(=N)c1c(O)nsc1Nc1ccc(Oc2ccccc2)cc1 (centres unmarked) [compound 179]	100 to 500	
Cc1ccc(Cl)c(Oc2ccc(Nc3snc(O)c3C(=N)NC(C)C)cc2)c1 [compound 292]	1 to 100	
CC(C)NC(=N)c1c(O)nsc1Nc1ccc(Oc2cccc(C(F)(F)F)c2Cl)cc1 [compound 269]	1 to 100	
CCOC(=O)c1ccc(Oc2ccc(Nc3snc(O)c3C(=N)NC(C)C)cc2)cc1 [compound 485]	100 to 500	

Structure (SMILES)	IC50 [2, 3] [nM]	other results
Cc1ccc(Nc2snc(O)c2C(=N)N2CCc3ccccc3C2)cc1 [Cpd 8]	> 500	
N=C(NCC(O)CO)c1c(O)nsc1Nc1ccc(Oc2ccccc2)cc1 (centres unmarked) [compound 40]	1 to 100	
N=C(NCC1CCCCC1)c1c(O)nsc1Nc1ccc(Cc2ccccc2)cc1 [compound 127]	100 to 500	
CC(C)NC(=N)c1c(O)nsc1Nc1ccc(Oc2ccc(F)cc2F)c(F)c1 [compound 398]	100 to 500	
N=C(NCC1CC1)c1c(O)nsc1Nc1ccc(Oc2ccccc2)cc1 [Cpd 19]	1 to 100	
N=C(NC1(CO)CCCC1)c1c(O)nsc1Nc1ccc(Oc2ccccc2)cc1 [compound 190]	100 to 500	
CCCCCNc1snc(O)c1C(=N)NCC1CCCCC1 [compound 121]	> 500	
N=C(c1c(O)nsc1Nc1ccc(Oc2ccc(Cl)cc2Cl)cc1)N1CCCCC1 [compound 427]	> 500	
CC(C)CCNC(=N)c1nsc(Nc2ccc(Oc3ccccc3)cc2)c1O [compound 43]	1 to 100	
Cc1cccc(C)c1Oc1ccc(Nc2snc(O)c2C(=N)NC(C)C)cc1F [compound 279]	1 to 100	
Cc1cc(Oc2ccccc2)ccc1Nc1snc(O)c1C(=N)NC(C)CO (centres unmarked) [compound 335]	1 to 100	
CC(CO)NC(=N)c1c(O)nsc1Nc1ccc(C(=O)Nc2ccccc2)cc1 (centres unmarked) [drawing 812]		IC50 [2, 4]: 1 to 100 nM
CN(C)CCNC(=N)c1c(O)nsc1Nc1ccc(Oc2ccccc2)cc1 [compound 147]	100 to 500	
CC(CO)NC(=N)c1c(O)nsc1Nc1ccc(Oc2ccccc2Cl)c(F)c1 (centres unmarked) [compound 278]	1 to 100	
CC(C)NC(=N)c1c(O)nsc1Nc1ccc(Oc2cccc(Cl)c2)cc1 [compound 249]	1 to 100	
CC(C)NC(=N)c1c(O)nsc1Nc1ccc(Oc2ccc(Cl)cc2Cl)cc1 [compound 232]	1 to 100	
CCCCCCCNC(=N)c1c(O)nsc1Nc1ccc(Oc2ccccc2)cc1 [Cpd 10]	1 to 100	
CC(CO)NC(=N)c1c(O)nsc1Nc1ccc(Oc2c(F)ccc(F)c2Cl)cc1 (centres unmarked) [compound 323]	100 to 500	
CC[C@@H](CO)NC(=N)c1c(O)nsc1Nc1ccc(Oc2cccc(C(F)(F)F)c2)cc1C [compound 506]	100 to 500	
COC(=O)c1cccc(Nc2snc(O)c2C(=N)NCC(O)O)c1C [compound 499]	100 to 500	
N=C(N[C@@H]1CCC[C@H]1O)c1c(O)nsc1Nc1ccc(Oc2ccccc2)cc1 [compound 155]	100 to 500	
Cc1cc(Oc2cc(F)cc(F)c2)ccc1Nc1snc(O)c1C(=N)NC(C)CO (centres unmarked) [compound 458]	1 to 100	
CC(CCc1ccccc1)NC(=N)c1c(O)nsc1Nc1ccc(Oc2ccccc2)cc1 (centres unmarked) [compound 50]	1 to 100	
N=C(NCC(c1ccccc1)c1ccccc1)c1c(O)nsc1Nc1ccc(Oc2ccccc2)cc1 [compound 48]	1 to 100	

Structure (SMILES)	IC50 [2, 3] [nM]	other results
N=C(NCCN1CCOCC1)c1c(O)nsc1Nc1ccc(Oc2cc(F)cc(F)c2)cc1 [compound 413]	100 to 500	
CC(C)NC(=N)c1c(O)nsc1Nc1ccc(Oc2ccccc2Br)c(Cl)c1 [compound 290]	1 to 100	
N=C(NCCO)c1c(O)nsc1Nc1ccc(Oc2ccccc2Cl)cc1 [compound 213]	1 to 100	
N=C(NCC1CCCCC1)c1c(O)nsc1Nc1cc(C(F)(F)F)cc(C(F)(F)F)c1 [compound 66]	> 500	
COCC(C)NC(=N)c1c(O)nsc1Nc1ccc(Oc2cccc(F)c2F)cc1C (centres unmarked) [compound 502]	1 to 100	
N#Cc1cccc(Nc2snc(O)c2C(N)=NCC2CCCCC2)c1 [compound 71]	> 500	
N=C(NCCO)c1c(O)nsc1Nc1ccc(C(=O)Nc2ccccc2)cc1 [drawing 809]		IC50 [2, 4]: 100 to 500 nM
N=C(NCC(O)CO)c1c(O)nsc1Nc1ccc(Br)cc1 (centres unmarked) [compound 55]	100 to 500	
N=C(NC1CC1)c1c(O)nsc1Nc1ccc(Oc2cc(F)cc(F)c2)cc1 [compound 416]	100 to 500	
CC[C@@H](CO)NC(=N)c1c(O)nsc1Nc1ccc(Oc2ccccc2)cc1 [compound 176]	100 to 500	
CCCCCCCCCCOCC(O)CNC(=N)c1c(O)nsc1Nc1ccc(Oc2ccccc2)cc1 (centres unmarked) [compound 187]	> 500	
N=C(NCC1CCCCC1)c1c(O)nsc1NC12CC3CC(CC(C3)C1)C2 [compound 92]	> 500	
Cc1cc(Nc2snc(O)c2C(=N)NC(C)C)ccc1Oc1ccc(C(F)(F)F)cc1 [compound 389]	> 500	
N=C(NCCO)c1c(O)nsc1Nc1ccc(C(=O)N2CCc3ccccc32)cc1 [E-13]		IC50 [2, 5]: > 1000 nM
N=C(NCCO)c1c(O)nsc1Nc1ccc(Oc2ccc(F)cc2)cc1 [compound 204]	> 500	
CC(=O)NC(=N)c1c(O)nsc1Nc1ccc(Oc2ccccc2)cc1 [compound 150]	> 500	
N=C(NCc1cccc2ccccc12)c1c(O)nsc1Nc1ccccc1 [compound 87]	> 500	
CC(CO)NC(=N)c1c(O)nsc1Nc1ccc(Oc2ccc(Br)cc2)c(F)c1 (centres unmarked) [compound 333]	1 to 100	
N=C(NCC(O)CO)c1c(O)nsc1Nc1cc(F)c(Oc2cc(Cl)ccc2Cl)cc1F (centres unmarked) [compound 477]	1 to 100	
Cc1cc(Nc2snc(O)c2C(=N)NC(C)C)ccc1Oc1ccccc1Cl [compound 316]	1 to 100	
CC(C)NC(=N)c1c(O)nsc1Nc1ccc(C(=O)c2ccccc2)cc1 [compound 234]	100 to 500	
CC(CO)NC(=N)c1c(O)nsc1Nc1ccc(Oc2ccccc2Cl)cc1 (centres unmarked) [compound 211]	> 500	
CC(CO)NC(=N)c1c(O)nsc1Nc1ccc(Oc2cccc(Br)c2)cc1 (centres unmarked) [compound 251]	1 to 100	
